System: mouse psoriasis model induced by 5% IMQ
Assay: mRNA level of related inflammatory factors (qPCR) at lesion of mouse psoriasis model
Format: in vivo
Conditions: 5% IMQ model
Protocol: 20 mg of skin tissues were grinded to powder with liquid nitrogen, added with 0.5 mL of Trizol (Vazyme, article number: R401-01), and incubated on ice for 10 minutes. A split product was transferred to a 1.5 mL RNase-free centrifuge tube, added with 100 μL of chloroform, then shaken vigorously for 15 seconds, stood on ice for 2 minutes, and then centrifuged at 4° C. at 12000 rpm for 10 minutes. A water phase on an upper layer was absorbed into a new 1.5 mL RNase-free centrifuge tube, added with the same amount of isopropanol to precipitate RNA, and then centrifuged at 4° C. at 12000 rpm for 10 minutes. A supernatant was discarded, 500 μL of 75% ethyl alcohol prepared with DEPC water was added to wash the RNA precipitate, and then centrifuged at 4° C. at 12000 rpm for 5 minutes. A supernatant was discarded, the RNA precipitate was slightly dried, and the RNA was dissolved with 10 μL of DEPC water. 1 μL of the mixture was subjected to concentration detection by a detection instrument which was Nano-100 ultra-micro spectrophotometer (Hangzhou Aosheng Instrument Co., Ltd., article number: AS-11010). Another 500 ng of the RNA was subjected to a reverse transcription reaction, which was operated according to instructions of HiScript® II One Step RT-PCR Kit (Vazyme, article number: P611-01). A reverse transcription product was stored at −20° C. for later use. […]

How did the “transcription (mRNA level) of the related inflammatory factors” value turn out when `O=c1cc(-c2ccc(O)cc2)oc2cc(O)c(O)c(O)c12` [Scutellarein] was run?
The value was “obviously reduce”.

Source: patent US11304926B2, “Application of transient receptor potential cation channel TRPV3 in developing drug for preventing or treating psoriasis” (CHINA PHARMACEUTICAL UNIVERSITY, priority 2019, dated 2022)
